Values after ≈ are worked out from the molar mass of the structure shown. Where two headings read alike, the source gives them in different places.
How the values were obtained:
Test in all cases: liquid turbidimetric microtiter MIC determination in broth media
Format in all cases: cell-based
Escherichia coli MB 2884 = system: Escherichia coli MB 2884
Excerpt: (§1) The antibacterial activities of the compounds of Examples 8 and 10 against a panel of aerobic Gram positive and negative bacteria is shown in the following Table. The assay employs a liquid turbidimetric microtiter method for the determination of the minimum inhibitory concentration (MIC) in broth media. […] The MIC is generally not an absolute value but rather a concentration range that falls within a two-fold dilution limit. Generally twelve two-fold dilutions of the test compound are employed with the initial concentration set at 128 mcg/ml.

[1] = system: Staphylococcus aureus MB 2865
Excerpt: as §1

[2] = system: Haemophilus influenzae AT 43163
Excerpt: as §1

[3] = system: Enterococcus faecalis MB 5407
Excerpt: as §1

[4] = system: Enterobacter cloacae CL 4298
Excerpt: as §1

[5] = system: Klebsiella pneumoniae MB 4005
Excerpt: as §1

[6] = system: Streptococcus pneumoniae CL 2883
Excerpt: as §1

[7] = system: Haemophilus influenzae MB 5363
Excerpt: as §1

[8] = system: Streptococcus pyogenes MB 2874
Excerpt: as §1

[9] = system: Staphylococcus epidermidis MB 5414
Excerpt: as §1

[10] = system: Enterococcus faecium MB 5416; conditions: MB5416, Table I
Excerpt: as §1

[11] = system: Pseudomonas stutzeri MB 1231; conditions: Stutzerimonas stutzeri, MB1231, Table I
Excerpt: as §1

[12] = system: Steptococcus viridans CL 2943; conditions: Table I
Excerpt: as §1

[13] = system: Streptococcus pyogenes MB 54061; conditions: MB54061, Table I
Excerpt: as §1

[14] = system: Streptococcus agalactiae CL 1343; conditions: CL1343, Table I
Excerpt: as §1

[15] = system: Staphylococcus haemolyticus MB 5412; conditions: MB5412, Table I
Excerpt: as §1

Escherichia coli MB 4926 = conditions: MB4926, Table I
Excerpt: as §1

[16] = MB2884, Table II, MIC, read-out: In vitro Activity
[17] = MB2865, Table II, MIC, Staphylococcus aureus MB 2865, read-out: In vitro Activity
[18] = AT43163, Table II, MIC, Haemophilus influenzae AT 43163, read-out: In vitro Activity
[19] = MB5407, Table II, MIC, Enterococcus faecalis MB 5407, read-out: In vitro Activity
[20] = CL4298, Table II, MIC, Enterobacter cloacae CL 4298, read-out: In vitro Activity
[21] = MB4005, Table II, MIC, Klebsiella pneumoniae MB 4005, read-out: In vitro Activity
[22] = CL2883, Table II, MIC, Streptococcus pneumoniae CL 2883, read-out: In vitro Activity
[23] = MB5363, Table II, MIC, Haemophilus influenzae MB 5363, read-out: In vitro Activity
[24] = MB2874, Table II, MIC, Streptococcus pyogenes MB 2874, read-out: In vitro Activity
[25] = MB5414, Table II, MIC, Staphylococcus epidermidis MB 5414, read-out: In vitro Activity
[26] = MB2884, Table I, read-out: MIC Values
[27] = MB2865, Table I, Staphylococcus aureus MB 2865, read-out: MIC Values
[28] = MB5407, Table I, Enterococcus faecalis MB 5407, read-out: MIC Values
[29] = MB4005, Table I, Klebsiella pneumoniae MB 4005, read-out: MIC Values
[30] = CL2883, Table I, Streptococcus pneumoniae CL 2883, read-out: MIC Values
[31] = MB2874, Table I, Streptococcus pyogenes MB 2874, read-out: MIC Values
[32] = MB5414, Table I, Staphylococcus epidermidis MB 5414, read-out: MIC Values

`CC[C@H]1OC(=O)[C@H](C)[C@@H](O[C@H]2C[C@@](C)(OC)[C@H](N)[C@H](C)O2)[C@H](C)[C@@H](O[C@@H]2O[C@H](C)C[C@H](N(C)C)[C@H]2O)[C@](C)(O)C[C@@H](C)N(C)C[C@H](C)[C@@H](O)[C@]1(C)O` [Example 20, 4''-Deoxy-4''-(R) - amino-9-deoxo-8a-aza-8a-methyl-8a-homoerythromycin A] was tested, and the MIC (Escherichia coli MB 2884; [16]) was 0.25 µg/mL (≈ 0.334 µM), the MIC [1, 17] was 1 µg/mL (≈ 1.34 µM) and the MIC [2, 18] was 0.25 µg/mL (≈ 0.334 µM). It also gave an MIC [3, 19] of 2 µg/mL (≈ 2.67 µM), an MIC [4, 20] of 0.12 µg/mL (≈ 0.16 µM) and an MIC [5, 21] of 0.25 µg/mL (≈ 0.334 µM). For the same compound, the MIC [6, 22] was no more than 0.06 µg/mL, the MIC [7, 23] was 0.5 µg/mL (≈ 0.668 µM) and the MIC [8, 24] was no more than 0.06 µg/mL. For the same compound, the MIC [9, 25] was 0.5 µg/mL (≈ 0.668 µM).
For `CC[C@H]1OC(=O)[C@H](C)[C@@H](O[C@H]2C[C@@](C)(OC)[C@@H](O)[C@H](C)O2)[C@H](C)[C@@H](O[C@@H]2O[C@H](C)C[C@H](N(C)C)[C@H]2O)[C@](C)(O)C[C@@H](C)N(C)C[C@H](C)[C@@H](O)[C@]1(C)O` [Example 10, 9-Deoxo-8a-aza-8a-methyl-8a-homoerythromycin A], the MIC [10] was 0.25 µg/mL (≈ 0.334 µM), the MIC [11] was no more than 0.06 µg/mL and the MIC (Escherichia coli MB 2884; [26]) was 1 µg/mL (≈ 1.34 µM). It also gave an MIC [1, 27] of 0.5 µg/mL (≈ 0.668 µM), an MIC [3, 28] of 4 µg/mL (≈ 5.34 µM) and an MIC [12] of 1 µg/mL (≈ 1.34 µM). The MIC [13] was 128 µg/mL (≈ 171 µM), the MIC [14] was no more than 0.06 µg/mL and the MIC [5, 29] was 2 µg/mL (≈ 2.67 µM). The MIC [15] was 0.5 µg/mL (≈ 0.668 µM), the MIC [6, 30] was no more than 0.06 µg/mL and the MIC (Escherichia coli MB 4926) was 0.06 µg/mL (≈ 0.0801 µM). For the same compound, the MIC [8, 31] was no more than 0.06 µg/mL and the MIC [9, 32] was 1 µg/mL (≈ 1.34 µM).
Work on `CC[C@H]1OC(=O)[C@H](C)[C@@H](O[C@H]2C[C@@](C)(OC)[C@@H](O)[C@H](C)O2)[C@H](C)[C@@H](O[C@@H]2O[C@H](C)C[C@H](N(C)C)[C@H]2O)[C@](C)(O)C[C@@H](C)C(=O)[C@H](C)[C@@H](O)[C@]1(C)O` [Erythromycin A, erythromycin A] yielded an MIC (Escherichia coli MB 2884; [16]) of 16 µg/mL (≈ 21.8 µM), an MIC ([1]; Staphylococcus aureus, MB2865, read-out: In vitro Activity) of 0.12 µg/mL (≈ 0.164 µM) and an MIC ([2]; Haemophilus influenzae, AT43163, read-out: In vitro Activity) of 2 µg/mL (≈ 2.73 µM). For the same compound, the MIC ([3]; Enterococcus faecalis, MB5407, read-out: In vitro Activity) was 1 µg/mL (≈ 1.36 µM), the MIC ([4]; Enterobacter cloacae, CL4298, read-out: In vitro Activity) was 16 µg/mL (≈ 21.8 µM) and the MIC ([5]; Klebsiella pneumoniae, MB4005, read-out: In vitro Activity) was 32 µg/mL (≈ 43.6 µM). The MIC ([6]; Streptococcus pneumoniae, CL2883, read-out: In vitro Activity) was no more than 0.06 µg/mL, the MIC ([7]; Haemophilus influenzae, MB5363, read-out: In vitro Activity) was 2 µg/mL (≈ 2.73 µM) and the MIC ([8]; Streptococcus pyogenes, MB2874, read-out: In vitro Activity) was no more than 0.06 µg/mL. It also gave an MIC ([9]; Staphylococcus epidermidis, MB5414, read-out: In vitro Activity) of 0.12 µg/mL (≈ 0.164 µM).
`CC[C@H]1OC(=O)[C@H](C)[C@@H](O[C@H]2C[C@@](C)(OC)[C@@H](O)[C@H](C)O2)[C@H](C)[C@@H](O[C@@H]2O[C@H](C)C[C@H](N(C)C)[C@H]2O)[C@](C)(O)C[C@@H](C)NC[C@H](C)[C@@H](O)[C@]1(C)O` [Example 9, 9-Deoxo-8a-aza-8a-homoerythromycin A] showed an MIC [10] of 0.25 µg/mL (≈ 0.34 µM), an MIC [11] of no more than 0.06 µg/mL and an MIC (Escherichia coli MB 2884; [26]) of 4 µg/mL (≈ 5.44 µM). The MIC [1, 27] was 0.5 µg/mL (≈ 0.68 µM), the MIC [3, 28] was 8 µg/mL (≈ 10.9 µM) and the MIC [12] was 8 µg/mL (≈ 10.9 µM). For the same compound, the MIC [13] was 128 µg/mL (≈ 174 µM), the MIC [14] was no more than 0.06 µg/mL and the MIC [5, 29] was 8 µg/mL (≈ 10.9 µM). The MIC [15] was 0.5 µg/mL (≈ 0.68 µM), the MIC [6, 30] was no more than 0.06 µg/mL and the MIC (Escherichia coli MB 4926) was 2 µg/mL (≈ 2.72 µM). It also gave an MIC [8, 31] of no more than 0.06 µg/mL and an MIC [9, 32] of 1 µg/mL (≈ 1.36 µM).
For `CC[C@H]1OC(=O)[C@H](C)[C@@H](O[C@H]2C[C@@](C)(OC)C(N)[C@H](C)O2)[C@H](C)[C@@H](O[C@@H]2O[C@H](C)C[C@H](N(C)C)[C@H]2O)[C@](C)(O)C[C@@H](C)N(C)C[C@H](C)[C@@H](O)[C@]1(C)O` (stereo partly drawn) [Example 17, 4''-Deoxy-4''-amino-9-deoxo-8a-aza-8a-methyl-8a-homoerythromycin A], the MIC (Escherichia coli MB 2884; [16]) was 0.12 µg/mL (≈ 0.16 µM), the MIC [1, 17] was 1 µg/mL (≈ 1.34 µM) and the MIC [2, 18] was 0.25 µg/mL (≈ 0.334 µM). For the same compound, the MIC [3, 19] was 4 µg/mL (≈ 5.35 µM), the MIC [4, 20] was no more than 0.06 µg/mL and the MIC [5, 21] was 0.12 µg/mL (≈ 0.16 µM). For the same compound, the MIC [6, 22] was no more than 0.06 µg/mL, the MIC [7, 23] was 0.5 µg/mL (≈ 0.668 µM) and the MIC [8, 24] was no more than 0.06 µg/mL. For the same compound, the MIC [9, 25] was 0.5 µg/mL (≈ 0.668 µM).
For `CC[C@H]1OC(=O)[C@H](C)[C@@H](O[C@H]2C[C@@](C)(OC)[C@@H](N)[C@H](C)O2)[C@H](C)[C@@H](O[C@@H]2O[C@H](C)C[C@H](N(C)C)[C@H]2O)[C@](C)(O)C[C@@H](C)N(C)C[C@H](C)[C@@H](O)[C@]1(C)O` [Example 19, 4''-Deoxy-4''-(S) - amino-9-deoxo-8a-aza-8a-methyl-8a-homoerythromycin A], the MIC (Escherichia coli MB 2884; [16]) was 0.12 µg/mL (≈ 0.16 µM), the MIC [1, 17] was 1 µg/mL (≈ 1.34 µM) and the MIC [2, 18] was 0.25 µg/mL (≈ 0.334 µM). For the same compound, the MIC [3, 19] was 2 µg/mL (≈ 2.67 µM), the MIC [4, 20] was no more than 0.06 µg/mL and the MIC [5, 21] was 0.12 µg/mL (≈ 0.16 µM). The MIC [6, 22] was no more than 0.06 µg/mL, the MIC [7, 23] was 0.25 µg/mL (≈ 0.334 µM) and the MIC [8, 24] was no more than 0.06 µg/mL. The MIC [9, 25] was 0.51 µg/mL (≈ 0.682 µM).
For “4''-epi-9-deoxo-8a-aza-8a-methyl-8a-homoerythromycin A [Example 15]”, the “In vitro Activity” value (Escherichia coli MB 2884; Table II, MIC) was 1 µg/mL, the “In vitro Activity” value ([1]; Table II, MIC, Staphylococcus aureus MB 2865) was 0.5 µg/mL and the “In vitro Activity” value ([2]; Table II, MIC, Haemophilus influenzae AT 43163) was 0.5 µg/mL. For the same compound, the “In vitro Activity” value ([3]; Table II, MIC, Enterococcus faecalis MB 5407) was 1 µg/mL, the “In vitro Activity” value ([4]; Table II, MIC, Enterobacter cloacae CL 4298) was 0.5 µg/mL and the “In vitro Activity” value ([5]; Table II, MIC, Klebsiella pneumoniae MB 4005) was 1 µg/mL. The “In vitro Activity” value ([6]; Table II, MIC, Streptococcus pneumoniae CL 2883) was “≦0.06 mcg/ml”, the “In vitro Activity” value ([7]; Table II, MIC, Haemophilus influenzae MB 5363) was 0.5 µg/mL and the “In vitro Activity” value ([8]; Table II, MIC, Streptococcus pyogenes MB 2874) was “≦0.06 mcg/ml”. For the same compound, the “In vitro Activity” value ([9]; Table II, MIC, Staphylococcus epidermidis MB 5414) was 0.25 µg/mL.

Reference: EP0549040A1, “Methods of making 4" derivatives of 9-deoxo-8a-aza-8a-alkyl-8a-homoerythromycin A” (MERCK & CO. INC., priority 1991, dated 1993)
